Test results from the supplement of paper PMC10307832.

Tests used:
Experiment in all cases: relative viability (nuclei count vs DMSO), 5 days (fraction); higher = more cells survive
[1] = compound: COc1cc(Nc2ncc(F)c(Nc3ccc4c(n3)NC(=O)C(C)(C)O4)n2)cc(OC)c1OC [R406] + Cc1cc(Nc2cc(N3CCN(C)CC3)nc(Sc3ccc(NC(=O)C4CC4)cc3)n2)n[nH]1 [Tozasertib] (partner 0.1 µM)
Procedure, shortened: (§1)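 A single step with final 0.05% Triton X-100, 1% formaldehyde and 1 ug/ml Hoechst fixed the cells and stained nuclei 5 days after treatment. Lung cancer cell lines in 1536-well plates had been treated by pin tool the day after seeding with one drug alone or a fixed anchor-drug dose plus five library-drug doses (not always all listed) in √10 steps, and nuclei were counted on 4× images. Relative viability is the ratio of nuclei in treated wells to nuclei in vehicle wells, taken as the median of duplicate plates.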

[2] = compound: O=C(/C=C/c1cccnc1)NCCCCC1CCN(C(=O)c2ccccc2)CC1 [Daporinad] + CC(=O)c1c(C)c2cnc(Nc3ccc(N4CCNCC4)cn3)nc2n(C2CCCC2)c1=O [Palbociclib] (partner 0.5 µM)
Procedure, shortened: as §1

[3] = compound: O=C(/C=C/c1cccnc1)NCCCCC1CCN(C(=O)c2ccccc2)CC1 [Daporinad] + CC1(C)CCC(c2ccc(Cl)cc2)=C(CN2CCN(c3ccc(C(=O)NS(=O)(=O)c4ccc(N[C@H](CCN5CCOCC5)CSc5ccccc5)c(S(=O)(=O)C(F)(F)F)c4)cc3)CC2)C1 [Navitoclax] (partner 0.5 µM)
Procedure, shortened: as §1

[4] = compound: O=C(/C=C/c1cccnc1)NCCCCC1CCN(C(=O)c2ccccc2)CC1 [Daporinad] + C[C@]1(O)C[C@@H](c2nc(-c3ccc4ccc(-c5ccccc5)nc4c3)c3c(N)nccn32)C1 [Linsitinib] (partner 1 µM)
Procedure, shortened: as §1

Cell Line | relative viability ([1]; first compound 0.08 µM) | relative viability ([1]; first compound 0.253 µM) | relative viability ([1]; first compound 0.8 µM) | relative viability ([1]; first compound 2.53 µM) | relative viability ([1]; first compound 8 µM) | relative viability ([2]; first compound 0.0005 µM) | relative viability ([2]; first compound 0.001581 µM) | relative viability ([2]; first compound 0.005 µM) | relative viability ([2]; first compound 0.01581 µM) | relative viability ([3]; first compound 0.0005 µM) | relative viability ([3]; first compound 0.001581 µM) | relative viability ([3]; first compound 0.005 µM) | relative viability ([3]; first compound 0.01581 µM) | relative viability ([4]; first compound 0.0005 µM) | relative viability ([4]; first compound 0.001581 µM) | relative viability ([4]; first compound 0.005 µM) | relative viability ([4]; first compound 0.01581 µM)
A-427 | 0.254 | 0.223 | 0.188 | 0.185 | 0.169 | 0.475 | 0.533 | 0.487 | 0.473 | 0.964 | 1.04 | 0.722 | 0.691 | 0.96 | 1.08 | 1.1 | 0.881
NCI-H2347 | 0.537 | 0.671 | 0.682 | 0.458 | 0.347 | 0.447 | 0.447 | 0.419 | 0.384 | 0.926 | 0.887 | 0.885 | 0.779 | 1.1 | 1.03 | 1 | 0.981
NCI-H1355 | 0.572 | 0.575 | 0.558 | 0.572 | 0.258 | 0.413 | 0.412 | 0.384 | 0.504 | 0.911 | 0.98 | 1.05 | 0.951 | 0.798 | 1.02 | 0.9 | 0.876
NCI-H1944 | 0.252 | 0.272 | 0.241 | 0.228 | 0.181 | 0.36 | 0.356 | 0.374 | 0.353 | 1.08 | 1.05 | 0.981 | 1.09 | 1.17 | 1.26 | 1.34 | 1.25
RERF-LC-KJ | 0.463 | 0.653 | 0.447 | 0.481 | 0.402 | 1.08 | 1.06 | 1.09 | 1.07 | 1.04 | 0.984 | 1.01 | 1.18 | 0.883 | 0.893 | 1.01 | 0.949
NCI-H2228 | 0.27 | 0.31 | 0.253 | 0.278 | 0.066 | 0.67 | 0.745 | 0.529 | 0.811 | 1.05 | 1.1 | 1.09 | 0.945 | 0.668 | 0.812 | 0.633 | 0.951
HOP-62 | 0.356 | 0.456 | 0.362 | 0.366 | 0.554 | 0.399 | 0.437 | 0.479 | 0.423 | 1.06 | 0.975 | 0.943 | 0.404 | – | 0.893 | 1.15 | 0.789
HARA | 0.115 | 0.127 | 0.13 | 0.155 | 0.123 | 0.258 | 0.263 | 0.308 | 0.238 | 1.15 | 1.08 | 1.14 | 0.275 | 0.949 | 0.937 | 1.03 | 0.188
